Reference: patent publication US20190290729A1, “PHARMACEUTICAL ASSOCIATION OF GROWTH FACTOR RECEPTOR AGONIST AND ADHESION PROTEIN INHIBITOR FOR CONVERTING A NEOPLASTIC CELL INTO A NON-NEOPLASTIC CELL AND USES THEREOF” (HISTIDE AG, priority 2015, published 2019)
Where no end group is shown, it is not given here.

Experiments:
[1] = tested on: human rhabdosarcoma cells; assay: pRB quantification, same procedure, rhabdosarcoma cells; format: cell-based; conditions: for pRB: Table 9, in association with SiRNA Integrin alpha 3+RGDSPC+SiRNA Integrin beta 1+SiRNA Syndecan 1 (SEQ ID NO: 31, 32, 164 to 187)
Experimental: (§1) The following starting materials and reagents were used: • Type-I collagen sponge was obtained from Sigma®. • PBS 1× was obtained from Gibco®. • MilliQ water: is water characterised in terms of resistivity (typically 18.2 MΩ·cm at 25° C.). • Low glucose Dulbecco's Modified Eagle Medium (DMEM) was obtained from Invitrogen® • Minimum Essential Medium Eagle without ascorbic acid (αMEM) was obtained from Invitrogen®. • All of the cell culture experiments were carried out without any serum in the medium for the first 8 hours of culture. • Osteosarcoma cells: MG63 cells were obtained from ATCC®. These cells were cultured in DMEM (Eagle's Minimum Essential Medium) medium supplemented with 10% fetal calf serum (FCS) and 1% penicillin/streptomycin. All cells were used at a low passage number (passage 10), were subconfluently cultured and were seeded at 10^4 cells/cm^2 for the purpose of the experiments. • Chondrosarcoma cells Hs819.T cells were obtained from ATCC®. These cells were cultured in DMEM (Eagle's Minimum Essential Medium) medium supplemented with 10% fetal calf serum (FCS) and 1% penicillin/streptomycin. All cells were used at a low passage number (passage 10), were subconfluently cultured and were seeded at 10^4 cells/cm^2 for the purpose of the experiments. • Rhabdomyosarcoma cells: A-673 cells were obtained from ATCC®. These cells were cultured in DMEM (Eagle's Minimum Essential Medium) medium supplemented with 10% fetal calf serum (FCS) and 1% penicillin/streptomycin. All cells were used at a low passage number (passage 10), were subconfluently cultured and were seeded at 10^4 cells/cm^2 for the purpose of the experiments. • Adenocarcinoma cells: HCC4006 cells were obtained from ATCC®. These cells were cultured in RPMI-1640 medium (obtained from ATCC®) supplemented with 10% fetal calf serum (FCS) and 1% penicillin/streptomycin. All cells were used at a low passage number (passage 10), were subconfluently cultured and were seeded at 10^4 cells/cm^2 for the purpose of the experiments. • CMFDA is a Cell Tracker Green obtained from Invitrogen®. • DAPI was obtained from Sigma®. • Fetal bovine serum (FBS) was obtained from Gibco®. • Penicillin/streptomycin was obtained from Invitrogen®. • The AlamarBlue® assay was obtained from Molecular Probes®. • Anti phospho-p53 antibody was obtained from Santa Cruz Biotechnology®, • Anti pRB antibody was obtained from Santa Cruz Biotechnology®, • Monoclonal anti-integrin (extracellular domain) αv, α5, α3, α4, β1, β3, β5 and β9 antibodies were obtained from Santa Cruz Biotechnology®, • Cell cytoskeletal filamentous actin (F-actin) was visualized by Alexa Fluor® 488 phalloidin Sigma® labeling. • Monoclonal anti-vinculin antibody (clone hVIN-1, produced in mouse) was obtained from Sigma®.
(§2) • All of the peptides were synthetized using conventional solution and/or solid phase peptide synthesis methods. • All of the experiments were performed with a concentration of 400 ng/mL of GFR-binding compound(s) as defined herein. • All cell culture experiments were performed with cultures on plastic coated with type-I collagen in order to mimic the physiological conditions of the human body. • The compositions of pharmaceutical compositions used in the examples below are summarized in the following table:
(§3) The cells were first fixed for 20 min with 4% paraformaldehyde/PBS at 4° C. After fixation, the cells were permeabilized in PBS containing 1% Triton X-100 for 15 min. Protein immunofluorescent visualization was performed by first treating the cells with 1% (v/v) specific monoclonal antibodies for 1 hour at 37° C. Then the samples were incubated with Alexa Fluor® 568 or 647 (F(ab′)2 fragment of IgG(H+L)) during 30 min at room temperature. The cell nuclei were counterstained in 20 ng/mL DAPI for 10 min at room temperature.
(§4) For this type of quantification the freeware image analysis ImageJ® software was used. […]

[2] = tested on: human rhabdosarcoma cells; assay: p53 quantification, same procedure, rhabdosarcoma cells; format: cell-based; parameters: P53: unit not given here; conditions: for P53: Table 9, in association with SiRNA Integrin alpha 3+RGDSPC+SiRNA Integrin beta 1+SiRNA Syndecan 1 (SEQ ID NO: 31, 32, 164 to 187)
Experimental: as §1, §2, §3, §4

[3] = Table 5, cyclic GFR-binding peptide in association with SiRNA Integrin alpha 3+RGDSPC+SiRNA Integrin beta 1+SiRNA Syndecan 1, 400 ng/mL
[4] = Table 8, in association with SiRNA Integrin alpha 3, v, 4 and SiRNA Integrin beta 1

| Sequence | pRB [1] | P53 [2] | further results |
| --- | --- | --- | --- |
| GTPGPKASSVPTELSPISTLYKDENEKVVLKYHYDM (Non-cyclic GFR-binding peptide) [SEQ ID NO: 168] | 13 | 51 | – |
| APVKMEPLPTVYYDDMGVPTEQLSNDMVEESGSLDDMGVPT (also: cyclic, ring not given here) [SEQ ID NO: 38225] | – | – | pRB (%) [1, 3]: 9%; P53 (%) [2, 3]: 49% |
| GTPGPPKPSSAPTQLNAISMLYFGGGGGLKKYRDMQHN (Non-cyclic GFR-binding peptide) [SEQ ID NO: 169] | 8 | 37 | – |
| CAAAPASSSVPARLSPISILYIAAAYKQYEDM (Non-cyclic GFR-binding peptide) [SEQ ID NO: 185] | 8 | 47 | – |
| APVAAKPLSMLYVDKGVVTYDHHKDAAVEE (Non-cyclic GFR-binding peptide) [SEQ ID NO: 132] | – | – | pRB (%) [1, 4]: 9%; P53 (%) [2, 4]: 38% |
| CVPTEERSVKVAKVRIKPHQGQHKEVQV (Non-cyclic GFR-binding peptide) [SEQ ID NO: 176] | 7 | 33 | – |
| VPTMMSNITTQIMRIKPHQGQHIGEMSMMQHN (Non-cyclic GFR-binding peptide) [SEQ ID NO: 135] | – | – | pRB (%) [1, 4]: 16%; P53 (%) [2, 4]: 48% |
| VPEAASSLSMLFFEIVRKKPIFLKVYPAATVE (Non-cyclic GFR-binding peptide) [SEQ ID NO: 124] | – | – | pRB (%) [1, 4]: 12%; P53 (%) [2, 4]: 37% |
| EPSSVSQAAEPLPIVYYRIKPHQGQHEQLSNMIVKSSKSSDDMGVPT (also: cyclic peptide, ring closure not given here) [SEQ ID NO: 38226] | – | – | pRB (%) [1, 3]: 12%; P53 (%) [2, 3]: 29% |
| EPSSSRVRLEPLTTLYYGGGGGGGEQLSNVVEEHSKDKGVVTY (also: cyclic peptide, ring closure not given here) [SEQ ID NO: 38224] | – | – | pRB (%) [1, 3]: 8%; P53 (%) [2, 3]: 46% |
| CGIPEPSSVPEKMSSLSILFFDENKNVVLKVYPNM (Non-cyclic GFR-binding peptide) [SEQ ID NO: 179] | 11 | 40 | – |
| VPTDDSATSTLYYDKGVVTYLRKHRDDEHS (Non-cyclic GFR-binding peptide) [SEQ ID NO: 137] | – | – | pRB (%) [1, 4]: 12%; P53 (%) [2, 4]: 42% |
| CAAPASSSVPARLSPISILYIDAANNVVYKQYEDMVVEASG (Non-cyclic GFR-binding peptide) [SEQ ID NO: 181] | 9 | 45 | – |
| CVPQRLSPISILYIDAANNVVYKQYE (Non-cyclic GFR-binding peptide) [SEQ ID NO: 186] | 12 | 38 | – |
| GTPGPAPTQLSPISVLYKDDSSNVILKYHY (Non-cyclic GFR-binding peptide) [SEQ ID NO: 31] | 5 | 34 | – |
| VPTSSSPISTLYIDKGVVTYLKYHYSSVAE (Non-cyclic GFR-binding peptide) [SEQ ID NO: 128] | – | – | pRB (%) [1, 4]: 21%; P53 (%) [2, 4]: 36% |
| CKIPKASSVPTELEPLPIVYYVGRKPKVEQLSNMIVRS (Non-cyclic GFR-binding peptide) [SEQ ID NO: 174] | 6 | 40 | – |
| GTPGPRNVQCRPTQVQLSAISTLYLEIVRKKPLKNYQTLEDH (Non-cyclic GFR-binding peptide) [SEQ ID NO: 172] | 12 | 33 | – |
| KASSVPQEERPVQMRKIGGGGGGGKKATVMIVRSSKSSDDMGVPT (not fully specified; also: cyclic, mode of cyclisation not given here) [SEQ ID NO: 38219] | – | – | pRB (%) [1, 3]: 15%; P53 (%) [2, 3]: 38% |
| CAAPASSSVPARLSPISLLYIDAANNVVYKQYEDM (Non-cyclic GFR-binding peptide) [SEQ ID NO: 183] | 13 | 44 | – |

| Sequence | pRB [1] | P53 [2] | further results |
| --- | --- | --- | --- |
| VPTVVSAISTLYLRIKPHQGQHLKNYQVVVVE (Non-cyclic GFR-binding peptide) [SEQ ID NO: 125] | – | – | pRB (%) [1, 4]: 9%; P53 (%) [2, 4]: 42% |
| SRVAARSVKMAKVGGGGGGGKEVQVAAEEH (Non-cyclic GFR-binding peptide) [SEQ ID NO: 136] | – | – | pRB (%) [1, 4]: 10%; P53 (%) [2, 4]: 38% |
| PTSSAPTDLRSVKMAKVEIVRKKPIFKEVQVDMVVKASGDKGVVTY (not fully specified; also: cyclic peptide) [SEQ ID NO: 38221] | – | – | pRB (%) [1, 3]: 11%; P53 (%) [2, 3]: 48% |
| GTPGPAPTKLSAISMLYLDSSNNVILRKHR (Non-cyclic GFR-binding peptide) [SEQ ID NO: 165] | 9 | 42 | – |
| CASAAPSSVPQALEPLPIVYYVGRTPKVEQLSNMIVRSSK (Non-cyclic GFR-binding peptide) [SEQ ID NO: 175] | 7 | 45 | – |
| WWFWGASSAVSQELSAISMLYLGGGLKNYQDMQHN (Non-cyclic GFR-binding peptide) [SEQ ID NO: 171] | 8 | 47 | – |
| VPQQQEPLTTLYYDEYDKVVEQLSNQQVKS (Non-cyclic GFR-binding peptide) [SEQ ID NO: 134] | – | – | pRB (%) [1, 4]: 8%; P53 (%) [2, 4]: 50% |
| VPTAAEPLTMLYYEIVRKKPIFEQLSNMVEHSDDMGVPT (also: cyclic peptide) [SEQ ID NO: 38223] | – | – | pRB (%) [1, 3]: 17%; P53 (%) [2, 3]: 44% |
| VPTVVSPISMLYIDDMGVPTYKQYEVVVVE (Non-cyclic GFR-binding peptide) [SEQ ID NO: 131] | – | – | pRB (%) [1, 4]: 12%; P53 (%) [2, 4]: 36% |
| SRVLLRPVQMRKIDKGVVTYKKATVLLEEH (Non-cyclic GFR-binding peptide) [SEQ ID NO: 139] | – | – | pRB (%) [1, 4]: 18%; P53 (%) [2, 4]: 49% |
| GTPGPASSAVSQELSAISMLYLGGGLKNYQDM (Non-cyclic GFR-binding peptide) [SEQ ID NO: 32] | 7 | 46 | – |
| WWFWGKASSVPTELSPISTLYKDENEKVVLKYHYDMVVEGSGSR (Non-cyclic GFR-binding peptide) [SEQ ID NO: 170] | 7 | 44 | – |
| TQVAARPVQTRKIDDMGVPTKKATVAAEDH (Non-cyclic GFR-binding peptide) [SEQ ID NO: 140] | – | – | pRB (%) [1, 4]: 17%; P53 (%) [2, 4]: 35% |
| IPKASSAPVGQRPVQMRKIDKGVVTYKKATVSSVEESGSLDKGVVTY (not fully specified; also: cyclic, mode of cyclisation not given here) [SEQ ID NO: 38218] | – | – | pRB (%) [1, 3]: 12%; P53 (%) [2, 3]: 36% |
| CAAPASSSVPARLSPISILYIDAANNVVYKQYEDMVVE (Non-cyclic GFR-binding peptide) [SEQ ID NO: 182] | 8 | 41 | – |
| CPARLSPISLLYIDAANNVVYKQYEDM (Non-cyclic GFR-binding peptide) [SEQ ID NO: 184] | 11 | 39 | – |
| GTPGPPSSAPTQLSATSVLYYDDSSNVILRKHRMIVKS (Non-cyclic GFR-binding peptide) [SEQ ID NO: 164] | 10 | 47 | – |
| GTPGPAPTKLSAISMLYLDSSNNVILKKYR (Non-cyclic GFR-binding peptide) [SEQ ID NO: 166] | 10 | 37 | – |
| CVPTEESNITMQIMRIKPHQGQHIGEMSFL (Non-cyclic GFR-binding peptide) [SEQ ID NO: 177] | 8 | 43 | – |
